# Key:
# Baf3T315I = experiment: In vivo anti-leukemic activity, blast cell count in blood smears, Baf3T315I implanted nude mice; conditions: Imatinib 10mg/kg, AN019 20mg/kg, AN024 20mg/kg, oral gavage or ip from day 15; up to day 42
# Excerpt: (§1) Blood smears were obtained via the tail vein or via the femoral vein every 6th day and blast cells counted and graphically represented.
# (§2) Abdominal swelling and decrease in activity was monitored daily, blood smear taken via the tail vein or the femoral vein every 6th day and H&E stained as per standard protocols. 42 days after implantation, mice were sacrificed and spleens harvested.
# (§3) Nude mice were intraperitoneally implanted with Baf3 mutant cells (wt, T315I, M351T or E255K). […] Blood was drawn from the femoral vein or tail vein every 6th day and blast cell count determined and graphically represented.
# Baf3M351T = experiment: In vivo anti-leukemic activity, blast cell count in blood smears, Baf3M351T implanted nude mice; conditions: Imatinib 10mg/kg, AN019 20mg/kg, AN024 20mg/kg, oral gavage or ip from day 15; up to day 42
# Excerpt: as §1, §2, §3
# Baf3E255K = experiment: In vivo anti-leukemic activity, blast cell count in blood smears, Baf3E255K implanted nude mice; conditions: Imatinib 10mg/kg, AN019 20mg/kg, AN024 20mg/kg, oral gavage or ip from day 15; up to day 42
# Excerpt: as §1, §2, §3
# [1] = test system: K562 luc human leukemia cells; experiment: Drug effectiveness (De) from in vivo luciferase studies; set-up: species or system nude mice
# Excerpt: [formula] Where: • Σalive = total number of mice alive per concentration at the end of experiment times photon count, Eluc = total number of mice alive showing luciferase expression per concentration at end of experiment and c represents control untreated animals times photon count and ∑c-initial represents the initial number of animals in control at start of experiment times photon count.
# K5621uc cells = experiment: Drug temporal penetrance (Tp) after stopping drug treatment; assay type: in vivo, nude mice; conditions: AN019 20mg/kg, AN024 20mg/kg, Imatinib 10mg/kg, daily ip from day 15, stopped on day 35, imaged till day 45
# Experimental: The temporal penetrance was calculated applying the following equation, Tp=. (((P)/(n))a -((P)/(n))ter)/(((P)/(n))a -((P)/(n))b) [formula]
# Where: • P=photon counts at day 'a', day 'ter', or day 'b' where 'a' is the day when drug treatment was stopped and 'ter' is the day when the experiment was terminated and 'b' is the day where P is minimum after day a but before day 'ter'. • n=number of animals alive when P was measured.
# The animals were imaged at 6 day intervals post transplantation. […] Drug treatment was stopped on day 35 and animals were imaged till day 45, and calculated as described in methods.
# ZR-71 = experiment: Matrigel invasion assay (modified Boyden chamber), ZR-71; assay type: cell-based; conditions: cells treated 48 h
# Experimental: (§4) The in vitro invasiveness of 4910, 5310 and U87 glioma cells and MDAMB231 and ZR71 breast cancer cells in the presence of specified concentrations of compounds were assessed using a modified Boyden chamber assay. Cells were treated with these compounds for 48 h. 1x10^6 cells were suspended in 600µl of serum-free medium supplemented with 0.2% BSA and placed in the upper compartment of the transwell chambers (Coming Costar Fischer Scientific Cat #07-200-158, Pittsburgh PA) coated with Matrigel (0.7 mg/ml). The lower compartment of the chamber was filled with 200 µl of serum medium and the cells were allowed to migrate for 24 h. After incubation, the cells were fixed and stained with Hema-3 and quantified as previously described (Mohanam et al. 1993). The migrated cells were imaged microscopically to determine the reduction in invasiveness induced by the compounds of this invention.
# (§5) The in vitro invasiveness of 4910, 5310 and U87 glioma cells and MDAMB231 and ZR71 breast cancer cells in the presence of specified concentrations of compounds were assessed using a modified Boyden chamber assay. Cells were treated with these compounds for 48 h.
# MDA-MB-231 = experiment: Matrigel invasion assay (modified Boyden chamber), MDA-MB-231; assay type: cell-based; conditions: cells treated 48 h
# Experimental: as §4, §5
# 4910 = experiment: Matrigel invasion assay (modified Boyden chamber), 4910; assay type: cell-based, human; conditions: cells treated 48 h
# Experimental: as §4, §5
# 5310 = experiment: Matrigel invasion assay (modified Boyden chamber), 5310; assay type: cell-based; conditions: cells treated 48 h
# Experimental: as §4, §5
# U87 = experiment: Matrigel invasion assay (modified Boyden chamber), U87; assay type: cell-based; conditions: cells treated 48 h
# Experimental: as §4, §5
# ZR-71 cells = experiment: In vitro angiogenic assay (conditioned media on human dermal endothelial cells), ZR-71; assay type: cell-based
# Experimental: (§6) The in vitro angiogenesis of 4910, 5310 and U87 glioma cells and MDAMB231 and ZR71 breast cancer cells in the presence of specified concentrations of compounds were determined as follows, cells (2x10^4/well) were seeded in 8-well chamber slides and were treated with various concentrations of test compounds. After a 24 h incubation period, the conditioned media was removed and added to a 4x 10^4 human dermal endothelial cell (monolayer in 8-well chamber slides) and the human dermal endothelial cells were allowed to grow for 72 h. Cells were then fixed in 3.7% formaldehyde and stained with H&E and photographed.
# MDA-MB-231 cells = experiment: In vitro angiogenic assay (conditioned media on human dermal endothelial cells), MDA-MB-231; assay type: cell-based; conditions: control condition and after radiation
# Experimental: as §6
# [2] = test system: Glioma xenograft cells 4910; experiment: In vitro angiogenic assay (conditioned media on human dermal endothelial cells), 4910; assay type: cell-based; conditions: 4910 cells, with and without radiation
# Experimental: as §6
# 5310 cells = experiment: In vitro angiogenic assay (conditioned media on human dermal endothelial cells), 5310; assay type: cell-based; conditions: control conditions and after radiation
# Experimental: as §6
# U87 glioma cells = experiment: In vitro angiogenic assay (conditioned media on human dermal endothelial cells), U87; assay type: cell-based; conditions: with and without radiation
# Experimental: as §6
# U87 cells = experiment: Western blot analysis for AKT, ERK and Pi3k, U87; assay type: cell-based; conditions: decrease was enhanced after radiation
# Experimental: (§7) Western blot analysis of 4910, 5310 and U87 glioma cells and MDAMB231 and ZR71 breast cancer cells in the presence of specified concentrations of compounds were assessed as per standard protocols. Cells were treated with AN019, AN024 or Temozolomide at the specified concentrations. 24h after treatment, cells were collected and cell lysates extracted. Equal quantities of proteins were fractionated by SDS-PAGE. The fractionated proteins were blotted on to nylon membranes and immunoprobed for AKT, ERK and Pi3k. Breast cancer cell protein isolates were additionally immunoprobed for EGFR, ErbB1, ErbB2 and ErbB3.
# 4910 cells = experiment: Western blot analysis for AKT, ERK and Pi3k, 4910; assay type: cell-based, human; conditions: decrease enhanced after radiation
# Experimental: as §7
# ZR71 = experiment: Western blot analysis for AKT, ERK and Pi3k, ZR71; assay type: cell-based
# Experimental: as §7
# [3] = test system: 4910, 5310 and U87 glioma cells and MDAMB231 and ZR71 breast cancer cells; experiment: Western blot analysis for pAKT and pERK (cell line not specified); assay type: cell-based; conditions: with and without radiation
# Experimental: as §7
# [4] = test system: K562 luciferase expressing cells; experiment: Leukemic survival study, K562 luciferase expressing cells implanted intraperitoneally; assay type: in vivo, nude mice
# [5] = test system: 4910 human glioma xenograft cells; experiment: Glioma radiation study, intracranially implanted 4910 cells; assay type: in vivo, Nude mice
# Experimental: Nude mice were intracranially implanted with 4910 human glioma xenograft cells (1x10^6 cells). Ten days after implantation mice were treated with AN019, AN024 or temozolomide with or without radiation (5Gy/week). The experiment was terminated at day 40 post implantation.
# K562 = experiment: ED50 (po) and therapeutic index in leukemic mice (K562)
smiles,measurement,setting,value
Cc1ccc(NC(=O)c2cccc(S(=O)(=O)C(F)(F)F)c2)cc1Nc1nccc(-c2cccnc2)n1 [AN024],blast cell count in blood smears,Baf3T315I,significant decrease in blast cell count and was superior to AN019 treatment at day 42
same,blast cell count in blood smears,Baf3M351T,significant decrease in blast cell count and was superior to AN019 treatment at day 42
same,blast cell count in blood smears,Baf3E255K,significant decrease in blast cell count and was superior to AN019 treatment at day 42
same,De (drug effectiveness),[1]; 5mg/kg,30.00%
same,De (drug effectiveness),[1]; 10mg/kg,85.00%
same,De (drug effectiveness),[1]; 20mg/kg,87.00%
same,De (drug effectiveness),[1]; 40mg/kg,90.00%
same,Tp (temporal penetrance),K5621uc cells,2.4
same,+Radiation % Invasion,"ZR-71; ZR-71, with radiation",45%
same,-Radiation % Invasion,"ZR-71; ZR-71, without radiation",48%
same,+Radiation % Invasion,"MDA-MB-231; MDA-MB-231, with radiation",47%
same,-Radiation % Invasion,"MDA-MB-231; MDA-MB-231, without radiation",43%
same,+Radiation % Invasion,"4910; 4910, with radiation",39%
same,-Radiation % Invasion,"4910; 4910, without radiation",56%
same,+Radiation % Invasion,"5310; 5310, with radiation",32%
same,-Radiation % Invasion,"5310; 5310, without radiation",27%
same,+Radiation % Invasion,"U87; U87, with radiation",29%
same,-Radiation % Invasion,"U87; U87, without radiation",53%
same,inhibition of angiogenesis,ZR-71 cells,complete inhibition of angiogenesis
same,inhibition of angiogenesis,MDA-MB-231 cells,only a slight inhibition was observed in control and radiation treatments
same,inhibition of angiogenesis,[2],significant inhibition of angiogenesis both with and without radiation
same,inhibition of angiogenesis,5310 cells,"inhibition of angiogenesis was seen in control conditions, whereas angiogenesis further inhibited after radiation treatment"
same,inhibition of angiogenesis,U87 glioma cells,significant retardation in angiogenesis with an increase in inhibition after radiation
same,ERK levels,U87 cells,slight decrease in ERK levels
same,AKT levels,4910 cells,decrease in AKT levels
same,PI3k levels,"ZR71; ZR71 (cell line by context), with and without radiation",decrease in PI3k levels after radiation
same,AKT levels,"ZR71; ZR71, unirradiated and after radiation","did not show any significant change under unirradiated conditions, whereas after radiation AN024 treated cells showed a decrease in AKT expression"
same,levels of pERK,[3],reduction on pERK levels but to a lesser extent than AN019
same,curative effect after withdrawal of drug treatment (animals cured at day 58),"[4]; drug treatment stopped at day 42, based on luminescence (Fig. 20)",continued to show curative effect
same,Blast cell count from blood smears after withdrawal of drug treatment,[4]; drug treatment withdrawn on day 42 (Fig. 21),showed effectiveness after withdrawal of drug treatment
same,mortality,"[4]; treatment from day 15 till day 42, then withdrawn, AN024 death determined to be other than leukemia",showed mortality on day 38
same,animals showing no signs of leukemia / complete absence of leukemic symptoms,"[4]; treatment from day 15 till day 42, then withdrawn, AN024 on day 55",8 of the 10 animals
same,animals cured / no observable intracranial tumor,"[5]; with radiation (5Gy/week), terminated at day 40",7 of 10 animals
same,"intracranial tumours (size, appearance)",[5]; without radiation,showed presence of intracranial tumours but the tumours were well defined and not showing diffuse edges
same,animals cured / complete absence of intracranial tumours,"[5]; without radiation, treatment from ten days after implantation, terminated at day 40",3 of 10 animals
same,Therapeutic index-LD50/ED50,K562,144

# — EP2265599B1, “CRYSTAL FORM OF PHENYLAMINOPYRIMIDINE DERIVATIVE” (Natco Pharma Limited, priority 2008, dated 2009)
